Values quoted from earlier work, collected in patent US20020177585A1, “Uses of targeted oxidative therapeutic formulation in arteriosclerosis” (priority 2001, published 2002).

Legend:
E. coli = details: increasing concentration of peroxide ex-vivo
[1] = test system: peroxide-sensitive E. coli; details: infused into the blood of infected rabbits

OO [hydrogen peroxide, Hydrogen peroxide]
direct bactericidal activity (E. coli): no evidence of direct bactericidal activity | bactericidal effect [1]: no bactericidal effect
